“Also recorded” adds a separate entry of the source.
Legend:
[1] = system: lesion of cholinergic cells of nucleus basalis magnocellularis in rats (model of irreversible Alzheimer-type dementia); assay: Barnes maze (spatial memory) in rats with 192 IgG-saporin lesion of the nucleus basalis magnocellularis, 1 round of training sessions; format: in vivo, Sprague Dawley rats; details: 5 administrations
Description: The animal model used is the lesion of cholinergic cells of nucleus basalis magnocellularis in rats to cause memory loss that is sustained over time. It is a recognized model of irreversible-type dementia, specifically of irreversible Alzheimer-type dementia.
(§1) More specifically, a bilateral lesion was generated in the nucleus basalis magnocellularis in the brain of male Sprague Dawley rats (male 150-200 g) by means of stereotaxic coordinates (bregma −1.5 mm anteroposterior, ±3 mm laterodorsal and −8 mm ventral from the surface of the cranium) by injecting toxin 192 IgG-saporin (Merck-Millipore. Ref:MAB390) (SAP, n=30) (135 ng/μl/hemisphere; 0.25 μl/min) dissolved in artificial cerebrospinal fluid (CSF, n=28) (148 mM NaCl, 2.7 mM KCl, […], 1.2 mM CaCl2.2H2O; pH 7.4 adjusted with 1 mM K2HPO4) and the same method was carried out for the lesion control group but in this case only CSF (1 μl/hemisphere) was injected. Finally, as control of the latter, another group of animals was used which only received the injection of the needle and no compound was administered (SHAM, n=7). To stabilize the lesion process, the animals were not handled for one week. […] The compound is dissolved in DMSO:Cremophor:saline according to ratio [1:1:18].
The test used to evaluate the cognitive deficit of these models was the Barnes maze, which measures spatial memory. It is a circular maze with 20 holes on the periphery and only one of them has an escape box. When the animal finds this box, it is returned to its cage. This method is performed four times a day for four days (16 training sessions). On the fifth day, the hole leading to the escape box is covered and the animal explores the maze for three minutes for the purpose of finding this hole (test). The time in the target quadrant will be evaluated in the test. This parameter indicates if the animal accurately remembers where the escape hole is located because it will spend more time in the quadrant containing said hole (target quadrant). This parameter was analyzed by means of SMART 3.0 video-tracking software. Compared to other types of behavioral tests that evaluate memory in rodents, this test has the advantage that there is no aversive stimulus with which effects relating to fear and anxiety may interfere, which thereby prevents confusing anxiolytic effects with cognitive enhancing effects.

[2] = system: lesion of cholinergic cells of nucleus basalis magnocellularis in rats (model of irreversible Alzheimer-type dementia); assay: Barnes maze in 192 IgG-saporin lesioned rats, 2 rounds of training sessions (second round with treatment); format: in vivo, Sprague Dawley rats; details: SAP* rats with previously shown deficit (SAP*+WIN); new escape hole, 0.5 mg/kg i.p. on 4 training days and test day from day 18
Experimental: as §1
The test used to evaluate the cognitive deficit of these models was the Barnes maze, which measures spatial memory. It is a circular maze with 20 holes on the periphery and only one of them has an escape box. When the animal finds this box, it is returned to its cage. […] The time in the target quadrant will be evaluated in the test. […] This parameter was analyzed by means of SMART 3.0 video-tracking software. […]

Compound	effect of CB1 antagonist co-administration on the WIN55,212-2 effect, time in the target quadrant, Barnes maze test ([1]; SAP-lesioned rats (SAP+W+SR), SR141716A 0.5 mg/kg together with WIN55,212-2 0.5 mg/kg i.p.)	ability to remember the escape hole (time in the target quadrant), Barnes maze test [2]	effect on memory of a control rat (time in the target quadrant), Barnes maze test ([1]; CSF control rats (CSF+W3), 3 mg/kg i.p.)	time in the target quadrant, Barnes maze test, non-lesioned control group ([1]; CSF control rats (CSF+WIN), 0.5 mg/kg i.p. once daily)	time in the target quadrant, Barnes maze test, high dose ([1]; SAP-lesioned rats (SAP+W3), 3 mg/kg i.p.)	time in the target quadrant (memory deficit), Barnes maze test ([1]; SAP-lesioned rats (SAP+WIN), 0.5 mg/kg i.p. once daily, one hour before training/test, 0.5 mg/kg)
Cc1c(C(=O)NN2CCCCC2)nn(-c2ccc(Cl)cc2Cl)c1-c1ccc(Cl)cc1 [SR141716A]	reversing the effect produced by treatment with WIN55,212-2 alone					
Cc1c(C(=O)c2cccc3ccccc23)c2cccc3c2n1[C@H](CN1CCOCC1)CO3 [WIN55,212-2]		capable of remembering it	detrimental for memory	no effect	behave like a control rat	had no memory deficits; also recorded: spends the most amount of time in the target quadrant

— patent publication US20200016163A1, “TREATMENT OF DEMENTIA WITH CANNABINOID AGONISTS” (priority 2017, published 2020)
